{"source": "patent US8115005B2", "about": "“Pyrazolylphenyl and pyrrolylphenyl inhibitors of LTA4H for treating inflammation” (Decode Genetics EHF., priority 2006, dated 2012)", "note": "Where a name gives a salt, the structure may show the parent alone.", "data": [{"system": "colitis symptoms", "assay": "not given", "conditions": "eight weeks of treatment, primate model of spontaneous colitis; cited from earlier work", "values": [{"compound": "CN(CCCOc1ccc(Cc2ccccc2)cc1)CCC(=O)O.Cl", "note": "[SC57461]", "colitis symptoms": "significantly improved colitis symptoms"}]}, {"molecular_target": "T1, recombinant human LTA4 hydrolase (Homo sapiens, UniProt P09960)", "T1 construct": "A human LTA4 hydrolase full-length cDNA clone (NM_000895) was purchased from OriGene Technologies; own knowledge that pDEST17 adds an N-terminal 6xHis, consistent with the Ni-NTA purification) (N); made in house; host or cells: Escherichia coli BL21-AI", "T1 sequence (P09960 1-611)": "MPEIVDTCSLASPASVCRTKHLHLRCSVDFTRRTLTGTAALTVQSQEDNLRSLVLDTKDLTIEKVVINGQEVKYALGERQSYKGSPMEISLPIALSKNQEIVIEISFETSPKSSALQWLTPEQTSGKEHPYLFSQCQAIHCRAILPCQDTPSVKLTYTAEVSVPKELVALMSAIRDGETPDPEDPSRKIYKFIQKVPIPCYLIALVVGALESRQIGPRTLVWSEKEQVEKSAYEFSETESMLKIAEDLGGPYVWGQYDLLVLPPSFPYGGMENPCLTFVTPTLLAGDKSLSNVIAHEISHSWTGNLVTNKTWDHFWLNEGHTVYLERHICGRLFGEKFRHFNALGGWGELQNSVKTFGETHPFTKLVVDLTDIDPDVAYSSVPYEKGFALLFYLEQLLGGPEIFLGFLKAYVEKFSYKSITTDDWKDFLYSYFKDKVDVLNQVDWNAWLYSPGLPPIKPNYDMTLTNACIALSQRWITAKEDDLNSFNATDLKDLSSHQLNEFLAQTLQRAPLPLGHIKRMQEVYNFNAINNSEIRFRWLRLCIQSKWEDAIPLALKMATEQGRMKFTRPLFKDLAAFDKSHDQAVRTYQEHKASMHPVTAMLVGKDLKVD", "assay": "In vitro assay testing inhibitory activity against purified recombinant human LTA4 hydrolase", "type": "biochemical", "conditions": "LTB4 formation; table does not say which of the two described assays (enzyme or human whole blood)", "from_the_text": "(1) In vitro assay testing inhibitory activity against purified recombinant human LTA4 hydroase. A human LTA4 hydrolase full-length cDNA clone (NM_000895) was purchased from OriGene Technologies (Rockville, Md.). The gene was amplified by polmerase chain reaction and transferred via pDONR201 into the bacterial expression vector pDEST17 by recombination (both plasmids from Invitrogen, Carlsbad, Calif.). The resulting construct was transformed into Escherichia coli BL21-AI (Invitrogen), and expression was induced by chemical induction with arabinose. The recombinant enzyme was purified by chromatography on an FPLC system (Amersham Biosciences, Uppsala, Sweden) using immobilized metal affinity chromatography (Ni-NTA Superflow, Qiagen, Hilden, Germany) and anion exchange chromatography (MonoQ HR 10/10, Amersham Biosciences).\nThe compounds of the invention were incubated in a series of dilutions with 200 nM of recombinant enzyme in assay buffer (100 mM Tris-HCl, 100 mM NaCl, 5 mg/ml fatty-acid free BSA, 10% DMSO, pH 8.0) for 10 min at room temperature to allow binding between LTA4 hydrolase and the inhibitors. LTA4 was prepared by alkaline hydrolysis of LTA4 methyl ester (Biomol, Plymouth Meeting, Pa., or Cayman Chemicals, Ann Arbor, Mich.). A solution of 10 μg of the ester was dried under a nitrogen stream and redissolved in 60 μl of a solution of 80% acetone and 20% 0.25 M NaOH. After incubation for 40 min at room temperature the resulting approximately 500 μM tock of LTA4 was kept at −80° C. for no more than a few days prior to use.\nImmediately before the assay, LTA4 was diluted to a concentration of 10 μM in assay buffer (without DMSO) and added to the reaction mixture to a final concentration of 2 μM to initiate the enzyme reaction. After incubation for 120 sec at room temperature, the reaction was stopped by adding 2 volumes of chilled quenching buffer, containing acetonitril with 1% acetic acid and 225 nM LTB4-d4 (Biomol). The samples were then kept at 4° C. overnight to complete protein precipitation and centrifuged for 15 min at 1800 g. LTB4 formed was measured by LC-MS/MS using LTB4-d4 as an internal standard and an external LTB4 standard (Biomol) as reference. Based on the amounts of LTB4 found at each inhibitor concentration, a dose-response curve was fitted to the data and an IC50 value was calculated.", "units": {"IC50": "µM"}, "values": [{"compound": "c1cnn(-c2ccc(OCCN3CCCCC3)cc2)c1", "note": "[Example 1, 1-[2-(4-Pyrazol-1-yl-phenoxy)-ethyl]-piperidine]", "IC50": "5 to 20"}, {"compound": "Cc1ccn(-c2ccc(OCCN3CCCCC3)cc2)n1", "note": "[Example 2, 1-{2-[4-(3-Methyl-pyrazol-1-yl)-phenoxy]-ethyl}-piperidine]", "IC50": "5 to 20"}, {"compound": "Cc1cc(C)n(-c2ccc(OCCN3CCCCC3)cc2)n1", "note": "[Example 3, 1-{2-[4-(3,5-Dimethyl-pyrazol-1-yl)-phenoxy]-ethyl}-piperidine]", "IC50": "< 5"}, {"compound": "FC(F)(F)c1ccnn1-c1ccc(OCCN2CCCCC2)cc1", "note": "[Example 4, 1-{2-[4-(5-Trifluoromethyl-pyrazol-1-yl)-phenoxy]-ethyl}-piperidine]", "IC50": "5 to 20"}, {"compound": "Cc1cc(C(F)(F)F)n(-c2ccc(OCCN3CCCCC3)cc2)n1", "note": "[Example 5, 1-{2-[4-(3-Methyl-5-trifluoromethyl-pyrazol-1-yl)-phenoxy]-ethyl}-piperidine]", "IC50": "< 5"}, {"compound": "Cc1c(C(F)F)cnn1-c1ccc(OCCN2CCCCC2)cc1", "note": "[Example 6, 1-{2-[4-(4-Difluoromethyl-5-methyl-pyrazol-1-yl)-phenoxy]-ethyl}-piperidine]", "IC50": "5 to 20"}, {"compound": "c1ccn(-c2ccc(OC[C@H]3CCCN3)cc2)c1", "note": "[Example 7, 1-[4-((R)-1-Pyrrolidin-2-ylmethoxy)-phenyl]-1H-pyrrole hydrochloride]", "IC50": "< 5"}, {"compound": "c1ccn(-c2ccc(OCCN3CCCCC3)cc2)c1", "note": "[Example 8, 1-[2-(4-Pyrrol-1-yl-phenoxy)-ethyl]-piperidine]", "IC50": "< 5"}, {"compound": "Brc1cccn1-c1ccc(OCCN2CCCCC2)cc1", "note": "[Example 9, 1-{2-[4-(2-Bromo-pyrrol-1-yl)-phenoxy]-ethyl}-piperidine]", "IC50": "< 5"}, {"compound": "O=Cc1cccn1-c1ccc(OCCN2CCCCC2)cc1", "note": "[Example 10, 1-[4-(2-Piperidin-1-yl-ethoxy)-phenyl]-1H-pyrrole-2-carbaldehyde]", "IC50": "< 5"}]}, {"molecular_target": "T2, LTA4H (Rattus norvegicus, UniProt P30349)", "T2 construct": "and in rat peritoneum in vivo; host or cells: rat peritoneum (in vivo, after oral dosing)", "T2 sequence (P30349 1-611)": "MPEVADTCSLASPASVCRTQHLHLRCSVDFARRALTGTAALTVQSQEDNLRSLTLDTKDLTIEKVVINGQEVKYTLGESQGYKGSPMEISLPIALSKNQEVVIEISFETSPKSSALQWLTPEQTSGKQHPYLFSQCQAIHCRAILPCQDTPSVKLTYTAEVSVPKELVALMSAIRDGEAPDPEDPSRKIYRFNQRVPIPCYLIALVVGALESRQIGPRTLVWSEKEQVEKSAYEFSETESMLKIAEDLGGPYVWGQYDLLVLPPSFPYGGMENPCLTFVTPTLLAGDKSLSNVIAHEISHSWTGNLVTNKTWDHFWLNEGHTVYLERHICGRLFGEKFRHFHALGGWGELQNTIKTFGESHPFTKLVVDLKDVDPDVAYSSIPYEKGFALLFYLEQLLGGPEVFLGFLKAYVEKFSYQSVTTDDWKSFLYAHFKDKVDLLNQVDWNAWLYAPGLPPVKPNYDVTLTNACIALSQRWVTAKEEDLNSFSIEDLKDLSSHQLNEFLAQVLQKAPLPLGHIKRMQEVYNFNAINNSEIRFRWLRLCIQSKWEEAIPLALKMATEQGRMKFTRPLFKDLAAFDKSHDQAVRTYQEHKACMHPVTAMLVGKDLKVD", "assay": "not given", "conditions": "oral administration, rat peritoneum in vivo; cited from earlier work", "values": [{"compound": "CN(CCCOc1ccc(Cc2ccccc2)cc1)CCC(=O)O.Cl", "note": "[SC57461]", "inhibition of ionophore-induced LTB4 production": "inhibition of ionophore-induced LTB4 production"}]}, {"molecular_target": "T3, LTA4H (Mus musculus, UniProt P24527)", "T3 construct": "host or cells: mouse blood (ex vivo, after oral dosing)", "T3 sequence (P24527 1-611)": "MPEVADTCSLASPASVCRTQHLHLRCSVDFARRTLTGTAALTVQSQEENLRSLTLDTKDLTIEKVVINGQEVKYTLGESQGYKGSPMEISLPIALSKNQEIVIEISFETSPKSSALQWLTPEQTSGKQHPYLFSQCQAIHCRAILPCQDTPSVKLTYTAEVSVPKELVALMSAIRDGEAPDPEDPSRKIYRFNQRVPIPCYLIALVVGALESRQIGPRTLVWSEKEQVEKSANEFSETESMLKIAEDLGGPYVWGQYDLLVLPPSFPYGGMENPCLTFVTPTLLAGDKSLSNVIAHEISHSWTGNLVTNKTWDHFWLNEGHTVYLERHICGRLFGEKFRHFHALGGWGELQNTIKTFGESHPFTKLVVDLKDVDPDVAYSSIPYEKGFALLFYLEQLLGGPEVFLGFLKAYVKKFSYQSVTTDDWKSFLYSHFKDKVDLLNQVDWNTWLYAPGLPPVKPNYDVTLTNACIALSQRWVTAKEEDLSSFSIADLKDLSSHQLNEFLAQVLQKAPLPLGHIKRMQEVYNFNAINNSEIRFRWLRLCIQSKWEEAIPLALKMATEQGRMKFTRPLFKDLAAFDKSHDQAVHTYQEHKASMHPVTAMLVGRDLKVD", "assay": "not given", "conditions": "oral administration, mouse blood ex vivo; cited from earlier work", "values": [{"compound": "CN(CCCOc1ccc(Cc2ccccc2)cc1)CCC(=O)O.Cl", "note": "[SC57461]", "inhibition of ionophore-induced LTB4 production": "inhibition of ionophore-induced LTB4 production"}]}]}
